PubChem BioAssay (NCI)
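Five concentrations, 48 hours, 96-well plates. GI50 = concentration required for 50% inhibition of growth. At the TGI there is no net growth.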

Key:
Experiment in all cases: growth of human tumour cells (NCI), 48 h
NCI-H226 lung = tested on: NCI-H226 lung
M14 melanoma = tested on: M14 melanoma
CCRF-CEM leukemia = tested on: CCRF-CEM leukemia
HCT-15 colon = tested on: HCT-15 colon
IGROV1 ovarian = tested on: IGROV1 ovarian
EKVX NSCLC = tested on: EKVX NSCLC
MOLT-4 leukemia = tested on: MOLT-4 leukemia
HOP-62 NSCLC = tested on: HOP-62 NSCLC
PC-3 prostate = tested on: PC-3 prostate
NCI/ADR-RES ovarian = tested on: NCI/ADR-RES ovarian

Structure (SMILES)	TGI (NCI-H226 lung)	TGI (M14 melanoma)	TGI (CCRF-CEM leukemia)	TGI (HCT-15 colon)	TGI (IGROV1 ovarian)	TGI (EKVX NSCLC)	TGI (MOLT-4 leukemia)	TGI (HOP-62 NSCLC)	GI50 (NCI-H226 lung)	GI50 (PC-3 prostate) [µM]	TGI (PC-3 prostate) [µM]	GI50 (M14 melanoma)	GI50 (NCI/ADR-RES ovarian) [µM]	TGI (NCI/ADR-RES ovarian) [µM]	GI50 (CCRF-CEM leukemia)	GI50 (HCT-15 colon)	GI50 (IGROV1 ovarian)	GI50 (MOLT-4 leukemia)	GI50 (HOP-62 NSCLC)	GI50 (EKVX NSCLC)
COC(=O)c1c(-c2ccccc2)sc(-c2cccc3ccccc23)c1C(=O)OC	> 100 µM	> 100 µM	> 100 µM	> 100 µM	> 100 µM	> 100 µM	> 100 µM													
C=C=C(C(=O)OC)S(=O)c1ccc([N+](=O)[O-])cc1[N+](=O)[O-] (stereo unspecified)	> 100 µM	> 69.5 µM	32.5 µM	45.3 µM	97.5 µM	> 100 µM	50.3 µM	> 82.5 µM												
CCOC(=O)C(=O)Nc1c(C(C)C)cccc1C(C)C	> 100 µM	> 100 µM	> 100 µM	> 100 µM	> 100 µM	> 100 µM	> 100 µM	> 100 µM												
COc1cc(Cn2c(-c3nonc3N)nc3ccccc32)ccc1C	> 100 µM	34.8 µM	> 100 µM	> 100 µM	> 61.6 µM		> 100 µM	21.3 µM	1.91 µM	0.399	> 100	0.426 µM	0.362	> 37.4	0.403 µM	0.427 µM	1.22 µM	0.692 µM	0.568 µM	
C=C(C=O)CCCC(C)[C@@H]1CCC23CC12CCC1[C@@]2(C)CCC(OC(C)=O)C(C)(C)C2CC(OC2OC(COC(C)=O)C(O)C(O)C2O)[C@]13C (stereo partly specified)	12.8 µM	4.57 µM	5 µM	7.5 µM	7.9 µM	13.7 µM	3.03 µM	14.3 µM												
COC(=O)c1nc(N)[nH]c(=O)c1CCCCCc1c(C(=O)OC)nc(N)[nH]c1=O		> 50 µM	> 50 µM	> 50 µM	> 50 µM	> 50 µM		> 50 µM												
Nc1nc(CCC(=O)Nc2cccc(C(F)(F)F)c2)cc(-c2ccc3ccccc3c2)n1	> 100 µM	> 100 µM	> 100 µM	> 100 µM	> 100 µM	> 100 µM	> 100 µM	> 100 µM												
CC(C)[C@H]1C(=O)N[C@@H](CCCN=C(N)N)C(=O)NCC(=O)N[C@@H](CC(=O)O)C(=O)N[C@H](Cc2ccccc2)C(=O)N1C	> 100 µM	> 100 µM	> 100 µM	> 74.8 µM	> 100 µM		> 100 µM	> 100 µM	9.21 µM	> 100	> 100	> 100 µM	> 100	> 100	> 100 µM	3.09 µM	> 62.2 µM	> 100 µM	7.04 µM	
CCOC(=O)c1cc(/C=C/C(C)=C/C(=O)OC)n(C)c1C	> 100 µM	> 100 µM	> 100 µM	> 100 µM	> 100 µM	> 100 µM	> 100 µM	> 100 µM												
Cc1c(Cl)cccc1NC(=O)CC1C(=O)Nc2ccccc2S1(=O)=O (stereo unspecified)	35.1 µM	29.3 µM	47.8 µM	25.7 µM	31.7 µM	70 µM	24.3 µM													
COC(=O)C1=C(CS(=O)c2ccccc2[N+](=O)[O-])ON(C)C1c1ccccc1 (stereo unspecified)	> 100 µM	> 100 µM	39.3 µM	76.3 µM	> 100 µM	> 100 µM	> 100 µM	> 100 µM												
O=[N+]([O-])c1ccc2c(c1)[O][Sn]([I])([I])[O]2	> 100 µM	> 100 µM	> 100 µM	> 100 µM	> 100 µM	> 100 µM	> 100 µM	> 100 µM	> 100 µM			> 100 µM			42.3 µM	54.4 µM	> 100 µM	68.4 µM	> 100 µM	> 100 µM
O=[N+]([O-])c1ccc2c(c1)[O][Sn][O]2	> 150 µg/mL	78.2 µg/mL	> 150 µg/mL	> 150 µg/mL	> 150 µg/mL	> 150 µg/mL	> 150 µg/mL	> 150 µg/mL	29 µg/mL			23.8 µg/mL			17.6 µg/mL	16.8 µg/mL	115 µg/mL	33 µg/mL	> 150 µg/mL	> 150 µg/mL
CCOc1c(Cl)cc(CNC(C)C(O)c2ccccc2)cc1OC (stereo unspecified)	> 100 µM		> 100 µM	67.4 µM	> 100 µM		85.7 µM	> 100 µM	33.5 µM	30.7	> 100		20.2	59.1	35.6 µM	21.9 µM	70.6 µM	26 µM	31 µM	
O=c1[nH]c(=O)n(C2OC3COC2C3O)cc1F (stereo unspecified)	> 100 µM	> 100 µM	> 100 µM	> 100 µM		> 100 µM	> 100 µM	> 100 µM												
CCOC(=O)COS(=O)(=O)C(F)(F)F	> 100 µM	> 100 µM	> 100 µM	35.1 µM	> 100 µM	> 100 µM	> 100 µM	> 100 µM												
C1=CC=C2NCCOCCNC3=CC=CC=CC3=NCCOCCN=C2C=C1	> 100 µM	41.6 µM	> 100 µM	> 100 µM	> 100 µM	> 100 µM	> 100 µM	> 100 µM												
Cc1nn(-c2ccccc2)c(-c2ccccc2[N+](=O)[O-])c1CC#N		> 100 µM	> 100 µM	> 100 µM	> 100 µM	> 100 µM	> 100 µM	> 100 µM												
C[N+]1(C)C/C(=C\c2ccncc2)C(=O)/C(=C/c2ccncc2)C1		> 100 µM	> 100 µM	> 100 µM	> 100 µM	> 100 µM	> 100 µM	> 100 µM												
Cc1ccc2c(c1)C(c1cccc3ccccc13)OC2=O (stereo unspecified)	> 100 µM	> 100 µM	> 100 µM	> 100 µM	> 100 µM	> 100 µM	> 100 µM	81.7 µM												
Cc1cc(=O)oc2cc(O)c(CN(C)CC(=O)O)cc12	> 100 µM	> 100 µM		> 100 µM	> 100 µM	> 100 µM					> 100			> 100						
O=[N+]([O-])c1nccn1COCCBr	> 100 µM	> 100 µM	> 100 µM	> 100 µM		> 100 µM	> 100 µM	> 100 µM												
